Test results from patent US20070072903A1, “Altering the concentration of intracellular agents by p2x7 receptor modulation” (priority 2003, published 2007).

T1: P2X7 receptor (Mus musculus, UniProt Q9Z1M0)
T1 construct: Murine mesenteric lymph nodes (10^7/ml) were disaggregated in DMEM; from tissue; host or cells: murine mesenteric lymph node lymphocytes (CD4+, CD8+ T cells, B cells)
T1 sequence (Q9Z1M0 1-595): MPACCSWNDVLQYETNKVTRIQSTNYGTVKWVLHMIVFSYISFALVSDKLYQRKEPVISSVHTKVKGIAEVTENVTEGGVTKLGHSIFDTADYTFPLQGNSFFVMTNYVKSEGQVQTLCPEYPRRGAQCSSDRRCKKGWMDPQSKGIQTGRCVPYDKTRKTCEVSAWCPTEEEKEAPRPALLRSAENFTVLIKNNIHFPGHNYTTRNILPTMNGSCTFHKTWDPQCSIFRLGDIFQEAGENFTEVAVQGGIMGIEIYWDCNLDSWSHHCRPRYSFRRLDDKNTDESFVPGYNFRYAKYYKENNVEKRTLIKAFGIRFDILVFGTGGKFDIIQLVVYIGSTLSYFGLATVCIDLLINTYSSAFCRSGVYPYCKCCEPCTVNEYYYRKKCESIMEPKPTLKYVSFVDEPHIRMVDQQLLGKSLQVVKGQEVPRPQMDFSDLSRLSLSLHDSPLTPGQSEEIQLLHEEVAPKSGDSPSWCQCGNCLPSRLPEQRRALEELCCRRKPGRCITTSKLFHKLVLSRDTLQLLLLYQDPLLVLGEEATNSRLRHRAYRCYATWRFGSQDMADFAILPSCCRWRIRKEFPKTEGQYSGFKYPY

T2: P2X7 receptor (Rattus norvegicus, UniProt Q64663)
T2 construct: expressed in transfected cells; transiently co-transfected with MDR1 cDNA
T2 sequence (Q64663 1-595): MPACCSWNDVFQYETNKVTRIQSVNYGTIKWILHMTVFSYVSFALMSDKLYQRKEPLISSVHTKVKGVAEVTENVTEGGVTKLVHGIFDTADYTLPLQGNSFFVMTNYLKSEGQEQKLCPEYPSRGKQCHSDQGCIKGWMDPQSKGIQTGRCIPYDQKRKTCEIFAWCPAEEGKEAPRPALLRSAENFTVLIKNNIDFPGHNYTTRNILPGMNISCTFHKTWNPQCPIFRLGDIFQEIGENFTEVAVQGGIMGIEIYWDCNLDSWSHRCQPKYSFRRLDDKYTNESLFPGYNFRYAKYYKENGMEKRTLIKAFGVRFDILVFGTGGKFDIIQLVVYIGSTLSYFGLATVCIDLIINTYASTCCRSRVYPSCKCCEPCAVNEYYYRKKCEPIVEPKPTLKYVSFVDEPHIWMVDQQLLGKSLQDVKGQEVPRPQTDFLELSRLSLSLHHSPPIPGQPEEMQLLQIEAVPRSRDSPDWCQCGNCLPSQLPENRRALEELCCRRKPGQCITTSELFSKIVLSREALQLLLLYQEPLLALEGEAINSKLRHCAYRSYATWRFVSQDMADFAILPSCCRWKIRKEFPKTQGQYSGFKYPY

B1: annexin V: substance which binds to phosphatidylserine and retains it in the outer leaflet (protein, UniProt P08758 2-320, looked up)
Annexin A5: AQVLRGTVTDFPGFDERADAETLRKAMKGLGTDEESILTLLTSRSNAQRQEISAAFKTLFGRDLLDDLKSELTGKFEKLIVALMKPSRLYDAYELKHALKGAGTNEKVLTEIIASRTPEELRAIKQVYEEEYGSSLEDDVVGDTSGYYQRMLVVLLQANRDPDAGIDEAQVEQDAQALFQAGELKWGTDEEKFITIFGTRSVSHLRKVFDKYMTISGFQIEETIDRETSGNLEQLLLAVVKSIRSIPAYLAETLYYAMKGAGTDDHTLIRVMVSRSEIDLFNIRKEFRKNFATSLYSMIKGDTSGDYKKALLLLCGEDD

How the values were obtained:
P-gp [1] = test: Rh123 uptake (P-gp activity) in murine lymphocytes, real-time flow cytometry; assay type: cell-based, mouse; conditions: 0.25 μM Rh123, 150 μM BzATP; CD4+, CD8+ and B cells
Description: Murine mesenteric lymph nodes (10^7/ml) were disaggregated in DMEM. To discriminate between different lymphocyte subsets, cells were stained with CD4^APC, CD4^CYCHROME, CD4^PE, CD4^FITC, CD8^APC, CD8^PE, CD8^PERCP, CD8^FITC, B220^APC (Becton Dickinson, Cailf.) antibodies as indicated. The fluorophore on antibodies used to identify CD4^+ and CD8^+T cells was varied in some experiments to avoid overlap between emission spectra of the antibody-conjugated fluorochromes and fluorescent transport substrates. Cells were washed with DMEM and analysed by flow cytometry (CellQuest software—Becton Dickinson). Live cells were gated by eye on the basis of forward scatter and side scatter. Lymphocytes lacking CD4 and CD8 were defined as B cells.
Lymphocytes were labelled with anti-CD4^CYCHROME and anti-CD8^APC antibodies to discriminate between CD4^+T cells, CD8^+T cells and B cells (CD4^− CD8^−). The lymphocytes were incubated with annexin V^PE, and then 0.25 μM Rh123 and 150 μM BzATP were added sequentially (as indicated in the Figures by arrows).

P-gp [2] = test: BODIPY-taxol uptake in mixed mdr1a/b-deficient and parental CD8+ lymphocytes; assay type: cell-based, mouse; conditions: mdr-deficient versus wild type CD8+ lymphocytes
Description: Mice were between 6 and 14 weeks of age. When experiments utilised FVB.mdr1a/b^−/− mice, age-matched FVB mice were used.
In a further experiment, lymphocytes from mdr1a/b-deficient or parental mice (mdr1a/b^+/+) were labelled with anti-CD8^PE and anti-CD8^PERCP antibodies, respectively (to discriminate between CD8^+ cells from each mouse during subsequent analysis). […]

P2X7 receptor [3] = target: T1, P2X7 receptor; test: PS translocation (annexin V binding) in murine lymphocytes, real-time flow cytometry; assay type: cell-based
Excerpt: Murine mesenteric lymph nodes (10^7/ml) were disaggregated in DMEM. To discriminate between different lymphocyte subsets, cells were stained with CD4^APC, CD4^CYCHROME, CD4^PE, CD4^FITC, CD8^APC, CD8^PE, CD8^PERCP, CD8^FITC, B220^APC (Becton Dickinson, Cailf.) antibodies as indicated. The fluorophore on antibodies used to identify CD4^+ and CD8^+T cells was varied in some experiments to avoid overlap between emission spectra of the antibody-conjugated fluorochromes and fluorescent transport substrates. Cells were washed with DMEM and analysed by flow cytometry (CellQuest software—Becton Dickinson). Live cells were gated by eye on the basis of forward scatter and side scatter. […]
To measure drug uptake the following fluorochromes were used (from Molecular Probes, Leiden, Netherlands, unless stated): 0.2 μM BODIPY-taxol (BT), 0.25 μM Rh123, 0.2 μM mitoxantrone (Sigma). PS exposure was monitored simultaneously in the same population of cells by increased binding of annexin V as follows. Cells were equilibrated with annexin V^FITC, annexin V^PE, or annexin V^CY5 (AV—Becton Dickinson, Cailf.) together with propidium iodide (PI) for four minutes, and analysed by flow cytometry on a FACScalibur machine using CellQuest software (Becton Dickinson, Cailf.). […] Cells were monitored for BT uptake or PS exposure continuously in real time for up to 15 minutes, as indicated. […]

P-gp [4] = test: BODIPY-taxol uptake in NIH3T3-MDR and parental NIH3T3 cells, continuous FACS analysis; assay type: cell-based, mouse; conditions: 175 μM BzATP, which lack the P2X7 receptor
Description: To measure drug uptake the following fluorochromes were used (from Molecular Probes, Leiden, Netherlands, unless stated): 0.2 μM BODIPY-taxol (BT), 0.25 μM Rh123, 0.2 μM mitoxantrone (Sigma). […] Baseline fluorescence was established for approximately one minute prior to addition of 150 μM (unless otherwise stated) 2′-3′-O-(4-benzoylbenzoyl)-adenosine 5′-triphosphate (BzATP, Sigma). Cells were monitored for BT uptake or PS exposure continuously in real time for up to 15 minutes, as indicated.
BODIPY-taxol (BT) and 175 μM BzATP were added to NIH3T3-MDR and parental NIH3T3 cells at times indicated by arrows. BT uptake was monitored by continuous FACS analysis, as an increase in fluorescence as a function of time.

P-gp [5] = test: BODIPY-taxol uptake in HEK 293 cells with or without P2X7, transiently transfected with MDR1; assay type: cell-based; conditions: HEK 293 cells expressing both P-gp and P2X7 receptor
[6] = test system: breast cancer resistance protein (abcg2); test: Mitoxantrone uptake in mdr1a/b-deficient lymphocytes; assay type: cell-based, mouse; conditions: 0.2 μM mitoxantrone
P2X7-HEK 293 cells = test: BODIPY-taxol uptake in HEK 293 and P2X7-HEK 293 cells; assay type: cell-based; conditions: 150 μM BzATP
Description: (§1) NIH 3T3 cells stably transfected with the human MDR1 gene (Ueda et al, 1987 Proc. Natl. Acad. Sci. USA 84, 3004-3008) were a gift from Michael Gottesman (NIH, Bethesda) and were maintained in 1 μg/ml colchicine in Dulbecco's modified Eagle's medium (DMEM—Sigma). HEK 293 cells stably transfected with rP2X7 have been described elsewhere (Wilson et al, 2002 J. Biol. Chem. 277, 34017-34023). Transient transfection of HEK293 cells was performed using polyethyleneimine (Sigma), as described previously (Dixon et al, 2000 Hum. Mol. Genet. 9, 1209-1217). pMDR1-wt, which encodes wild-type P-gp, has also been described previously (Blott et al, 1999 EMBO J. 18, 6800-6808). Expression of the MDR1 gene product, P-gp, on transfected cells was determined by labelling of cells with UIC2^PE in the presence of cyclosporine A (Sigma), as described by Mechetner et al, (1997 Proc. Natl. Acad. Sci. 94, 12908-12913).
(§2) To measure drug uptake the following fluorochromes were used (from Molecular Probes, Leiden, Netherlands, unless stated): 0.2 μM BODIPY-taxol (BT), 0.25 μM Rh123, 0.2 μM mitoxantrone (Sigma). PS exposure was monitored simultaneously in the same population of cells by increased binding of annexin V as follows. […] Cells were monitored for BT uptake or PS exposure continuously in real time for up to 15 minutes, as indicated. […]

[7] = test system: plasma membrane permeability; test: Propidium uptake after BzATP stimulation (non-specific membrane permeability); assay type: cell-based, mouse; conditions: BzATP-mediated stimulation; data omitted for brevity
P2X7 receptor [8] = target: T2, P2X7 receptor; assay type: cell-based; conditions: HEK 293 cells expressing both P-gp and P2X7 receptor
Description: as §1, §2

P2X7 receptor [9] = assay type: cell-based; conditions: HEK 293 cells expressing P-gp but lacking P2X7 receptors
Description: as §1, §2

[10] = test system: mdr1a/b-deficient CD4+ and CD8+ T cells; test: BODIPY-taxol uptake in mdr1a/b-deficient T cells; assay type: cell-based, mouse; conditions: 175 μM BzATP
Description: To measure drug uptake the following fluorochromes were used (from Molecular Probes, Leiden, Netherlands, unless stated): 0.2 μM BODIPY-taxol (BT), 0.25 μM Rh123, 0.2 μM mitoxantrone (Sigma). PS exposure was monitored simultaneously in the same population of cells by increased binding of annexin V as follows. Cells were equilibrated with annexin V^FITC, annexin V^PE, or annexin V^CY5 (AV—Becton Dickinson, Cailf.) together with propidium iodide (PI) for four minutes, and analysed by flow cytometry on a FACScalibur machine using CellQuest software (Becton Dickinson, Cailf.). Baseline fluorescence was established for approximately one minute prior to addition of 150 μM (unless otherwise stated) 2′-3′-O-(4-benzoylbenzoyl)-adenosine 5′-triphosphate (BzATP, Sigma). Cells were monitored for BT uptake or PS exposure continuously in real time for up to 15 minutes, as indicated. Continuous line graphs of changes in annexin V binding and fluorochrome uptake were plotted using FCSPress software (FCSPress.com, Cambridge, UK).
Mitoxantrone (Mx) or Mx plus BzATP, were added as indicted by arrows. Mitoxantrone uptake was measured as an increase in mean (±S.E.) fluorescence (FL-4 channel). […] BODIPY-taxol uptake was measured as an increase in mean (±S.E.) fluorescence (FL-1 channel). […] Only the responses of live cells (i.e. those excluding PI) were subsequently analysed.

[11] = injected into the hindpaw of rats at 100 nmol/50 μl; cited from earlier work
P-gp [12] = test: Annexin V trapping of PS after brief BzATP stimulation, BODIPY-taxol uptake in mdr1a/b-deficient and parental lymphocytes; assay type: cell-based, mouse; conditions: BzATP 45 seconds, washed, annexin V for 30 minutes to trap PS in the outer leaflet
Description: In this example, the inventors compared the uptake of BODIPY-taxol by parental and mdr1a/b-deficient lymphocytes, briefly stimulated with BzATP either in the continuous presence of annexin V to ‘trap’ PS in the outer leaflet, or with annexin V added only shortly before acquisition. The results are shown in FIGS. 4A-D. The experiments were performed as described below. Lymphocytes from mdr1a/b-deficient or parental mice (mdr1a/b^+/+) were labelled with anti-CD8^PE and anti-CD8^CY antibodies, respectively (to discriminate between CD8^+ cells from each mouse during subsequent analysis). […] BODIPY-taxol uptake was then measured by real-time flow cytometry. Reduced BT uptake indicates enhanced P-gp activity; increased annexin^CY5 binding indicates increased PS translocation from the inner to outer leaflet of the membrane. […] As PS exposure in samples stained with annexin V for four minutes immediately following stimulation (not shown) was equivalent to that in cells incubated for 30 minutes, PS trapping by annexin V appeared to be effectively complete.

Molecule | P-gp activity (uptake of Rh123) (P-gp [1]) | BT uptake following BzATP treatment (P-gp [2]) | PS translocation (annexin V binding) (P2X7 receptor [3]; 150 μM BzATP, CD4+ T cells, CD8+ T cells and B cells) | PS translocation (P2X7 receptor [3]; mdr1a/b-deficient lymphocytes) | P-gp activity (BT accumulation) (P-gp [4]) | BODIPY-taxol uptake (P-gp inhibition) (P-gp [5]) | uptake of mitoxantrone [6] | rate of uptake of BODIPY-taxol (P2X7-HEK 293 cells) | uptake of propidium ions [7] | PS translocation (P2X7 receptor [8]) | PS translocation (P2X7 receptor [9]) | rate of uptake of BODIPY-taxol [10] | toxicity [11] | restoration of P-gp activity (P-gp [12])
2′-3′-O-(4-benzoylbenzoyl)-adenosine 5′-triphosphate [BzATP] | order of responsiveness was CD4^+>CD8^+>>B cells | rapidly reached equivalence in the mdr-deficient and wild type cells | stimulated PS translocation with the order of responsiveness CD4^+ cells>CD8^+ T cells>>B cells | induced PS translocation | did not inhibit P-gp activity and thus did not increase BT accumulation | increased BODIPY-taxol uptake | markedly increased uptake of mitoxantrone | increased the rate of uptake | did not result in an increased uptake of propidium ions | induced PS translocation | neither induced PS translocation | increased the rate of uptake | non-toxic | 
B1 |  |  |  |  |  |  |  |  |  |  |  |  |  | prevents the restoration of P-gp activity
